US20230382940A1, “ANTIVIRAL COMPOUNDS AND METHODS OF MAKING AND USING THE SAME” (Gilead Sciences, Inc., priority 2022, published 2023)

Key:
[1] = tested on: Respiratory syncytial virus recombinant with luciferase (RSV-Luc5); assay: HEp-2 RSV-Luc5 384-well assay (EC50 RSVFLUC Hep2-384 v2), Example V; format: cell-based; settings: human respiratory syncytial virus, HEp-2, 72 h, read-out: EC50 RSV FLuc Hep-2 384 V2 (per Ex. V)
Outline: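 HEp-2 cells (4,000/well) seeded onto spotted compounds (10-point, 1:3 dilutions) and infected with RSV-Luc5 at MOI 0.5. After 3 days at 37 °C, luciferase read with One-Glo. Signal normalized to remdesivir (0%) and DMSO (100% replication) controls; EC50 from non-linear regression.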

[2] = GI S9 stability, cyno, Example Y; format: in vitro ADME; settings: cynomolgus monkey, pooled intestinal S9 fractions; cyno intestinal S9, 1.0 mg/mL protein, 2 μM compound, pH 7.4; read-out: GIS9 Cyno T½ (per Ex. Y)
Protocol: (§1) Example Y: GI S9 Stability Data
(§2) Stock solutions of test compounds in dimethyl sulfoxide (DMSO) having a final concentration of 10 mM were prepared and used in all experiments. Sekisui XenoTech (Kansas City, KS) provided pooled intestinal S9 fractions. All other chemicals were purchased from Sigma-Aldrich (St. Louis, MO) or VWR (West Chester, PA). Internal Standard/Quench (IS/Q) used to stop reactions was 100 nM labetalol in (by volume) methanol (10%) and acetonitrile (90%).
(§3) Stability in Intestinal S9 Fractions: Duplicate aliquots of test compound or positive control substrate were added to S9 stock diluted with phosphate buffered saline (137 mM NaCl, 2.7 mM KCl, 10 mM phosphate buffer), pH 7.4, to obtain a protein concentration of 1.0 mg/mL. The metabolic reactions were initiated by the addition of the substrates to the S9 reaction mixture to a final concentration of 2 μM. At 0, 10, 20, 30, 60 and 120 min, 25 μL aliquots of the reaction mixture were transferred to plates containing 225 μl of IS/Q solution. After quenching, the plates were centrifuged at 3000×g for 30 minutes. 150 μL aliquots of each supernatant were dried down then reconstituted with 300 μL water. Aliquots (10 μL) of the prepared samples were analyzed on a Thermo Q-Exactive mass spectrometer as described below.
(§4) Liquid Chromatography—Mass Spectrometry: Quantification of test compounds and control substrate was performed by analyte/internal standard peak area ratio (PAR) values measured on a Thermo Q-Exactive mass spectrometer coupled to a Dionex UltiMate 3000 HPLC with a Leap Technologies HTC PAL autosampler. The column used for analysis was a Waters Acquity BEH C18 (1.7 μm particle size, 2.1×50 mm). Mobile phase A consisted of 0.1% (v/v) formic acid in water. Mobile phase B consisted of 0.1% (v/v) formic acid in acetonitrile. Elution of analytes was achieved by a series of linear gradients varying the proportions of A and B. The mass spectrometer was calibrated on a weekly basis and mass tolerance of 5 ppm was used.
(§5) Metabolic stabilities in S9 fractions were determined by measuring the rates of disappearance of test compound and positive control substrate.
(§6) Data (% of substrate remaining) were plotted on a semi-log scale and fitted using an exponential decline model:
(§7) Ct=C0×e^−ln2/T1/2×t • Where Ct—% of substrate remaining at time=t; C0—% of substrate remaining at time=0; t—time; T1/2—half-life. • The Half-life (T1/2) is determined by the following equation: […]
(§8) Assuming a first-order reaction, the slope (k) is extrapolated from the aforementioned plotted data.

[3] = GI S9 stability, dog, Example Y; format: in vitro ADME; settings: dog intestinal S9, 1.0 mg/mL protein, 2 μM compound, pH 7.4; for half-life at 2 μM: pooled intestinal S9 fractions, read-out: GIS9 DOG T½ (per Ex. Y)
Protocol: as §1, §2, §3, §4, §5, §6, §7, §8

Row | Compound | EC50 [1] | half-life at 2 μM [2] | half-life at 2 μM [3] | GIS9 DOG T½ (per Ex. Y) [3]
1 | CCC(CC)OC(=O)OC[C@@]1(C#N)O[C@@H](c2ccc3c(N)ncnn23)[C@H](O)[C@@H]1O [Compound 14, ((2R,3S,4R,5S)-5-(4-aminopyrrolo[2,1-f][1,2,4]triazin-7-yl)-2-cyano-3,4-dihydroxytetrahydrofuran-2-yl)methyl pentan-3-yl carbonate] | 31.6 µM | 0.133 h | 8.9 h | –
2 | CC(C)COC(=O)OC[C@@]1(C#N)O[C@@H](c2ccc3c(N)ncnn23)[C@@H]2OC(=O)O[C@@H]21 [Compound 15, ((3aS,4R,6S,6aS)-6-(4-aminopyrrolo[2,1-f][1,2,4]triazin-7-yl)-4-cyano-2-oxotetrahydrofuro[3,4-d][1,3]dioxol-4-yl)methyl isobutyl carbonate] | 14.4 µM | 0.0333 h | 0.2 h | –
3 | N#C[C@]1(COC(=O)O[C@@H]2CCOC2)O[C@@H](c2ccc3c(N)ncnn23)[C@H](O)[C@@H]1O [Compound 24, ((2R,3S,4R,5S)-5-(4-aminopyrrolo[2,1-f][1,2,4]triazin-7-yl)-2-cyano-3,4-dihydroxytetrahydrofuran-2-yl)methyl ((R)-tetrahydrofuran-3-yl) carbonate] | 29.5 µM | 2.45 h | – | 13.2 h
4 | N#C[C@]1(COC(=O)O[C@H]2CCOC2)O[C@@H](c2ccc3c(N)ncnn23)[C@H](O)[C@@H]1O [Compound 33, ((2R,3S,4R,5S)-5-(4-aminopyrrolo[2,1-f][1,2,4]triazin-7-yl)-2-cyano-3,4-dihydroxytetrahydrofuran-2-yl)methyl ((S)-tetrahydrofuran-3-yl) carbonate] | 25.1 µM | 2.72 h | – | 13.2 h
